Data from ChEMBL document CHEMBL5528064, “Invention of MK-7845, a SARS-CoV-2 3CL Protease Inhibitor Employing a Novel Difluorinated Glutamine Mimic” (J Med Chem, 2024).
Activity calls are given as the source filed them. No cut-off for these calls is given here.

Tests used:
[1] = Oral bioavailability in human; type: ADME, organism-based; conditions: in vivo
[2] = Apparent permeability in MDCK cells; type: ADME, cell-based, Canis lupus familiaris; conditions: dog
Cytochrome P450 2D6 = Cytochrome P450 2D6 (Homo sapiens, UniProt P10635); assay: Reversible inhibition of CYP2D6 in human liver microsomes using dextromethorphan as substrate incubated for 5 mins in presence of NADPH-generating system by LC-MS/MS analysis; type: ADME, Microsome
Cytochrome P450 2D6, sequence (P10635 whole entry): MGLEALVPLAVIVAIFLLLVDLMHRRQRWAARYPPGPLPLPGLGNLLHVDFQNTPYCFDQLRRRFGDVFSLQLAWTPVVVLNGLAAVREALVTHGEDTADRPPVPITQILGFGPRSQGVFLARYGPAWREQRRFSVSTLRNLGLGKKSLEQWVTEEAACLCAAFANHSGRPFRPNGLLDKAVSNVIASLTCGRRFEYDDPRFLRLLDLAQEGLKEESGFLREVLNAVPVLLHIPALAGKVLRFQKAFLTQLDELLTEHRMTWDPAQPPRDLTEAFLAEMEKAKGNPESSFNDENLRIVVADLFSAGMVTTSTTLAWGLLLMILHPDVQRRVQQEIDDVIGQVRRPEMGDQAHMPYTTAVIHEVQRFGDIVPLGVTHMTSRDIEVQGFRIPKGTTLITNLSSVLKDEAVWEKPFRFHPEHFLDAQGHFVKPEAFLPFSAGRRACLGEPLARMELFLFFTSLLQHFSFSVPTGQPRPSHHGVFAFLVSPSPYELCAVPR

Cytochrome P450 1A2 [3] = molecular target: T1, Cytochrome P450 1A2 (Homo sapiens, UniProt P05177); assay: Reversible inhibition of CYP1A2 in human liver microsomes using phenacetin as substrate incubated for 5 mins in presence of NADPH-generating system by LC-MS/MS analysis; type: ADME, Microsome
T1 sequence (P05177 whole entry): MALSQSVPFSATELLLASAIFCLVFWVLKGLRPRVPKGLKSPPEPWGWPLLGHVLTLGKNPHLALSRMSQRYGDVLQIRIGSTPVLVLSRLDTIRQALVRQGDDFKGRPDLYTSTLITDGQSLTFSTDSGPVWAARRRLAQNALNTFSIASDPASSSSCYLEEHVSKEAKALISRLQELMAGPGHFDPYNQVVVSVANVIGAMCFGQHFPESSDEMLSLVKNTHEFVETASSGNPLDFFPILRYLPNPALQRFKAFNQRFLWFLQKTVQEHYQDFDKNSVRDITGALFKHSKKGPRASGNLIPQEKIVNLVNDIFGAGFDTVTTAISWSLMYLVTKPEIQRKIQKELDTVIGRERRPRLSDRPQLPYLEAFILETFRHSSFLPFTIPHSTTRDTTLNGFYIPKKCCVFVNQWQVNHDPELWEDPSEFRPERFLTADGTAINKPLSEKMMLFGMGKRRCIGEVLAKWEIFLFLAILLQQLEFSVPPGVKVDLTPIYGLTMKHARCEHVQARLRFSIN

SARS-CoV-2 [4] = assay: Antiviral activity against SARS CoV-2 USA-WA1/2020 infected in po dosed B6.Cg-Tg(K18-ACE2)2Prlmn/J mouse assessed as reduction in viral RNA level administered orally twice daily and measured on day 4 post inoculation by RT-PCR analysis; type: functional, organism-based; conditions: Severe acute respiratory syndrome coronavirus 2, dose 100-500 mg/kg, time 4.0 day
[5] = Plasma protein binding in monkey assessed as unbound fraction at 1 uM; type: ADME, cell-free, Macaca mulatta; conditions: rhesus monkey
[6] = Plasma stability in rat assessed as epimerization at 1 uM measured upto 3 hrs by LC-MS/MS analysis; type: ADME, cell-free
Cytochrome P450 2B6 [7] = molecular target: T2, Cytochrome P450 2B6 (Homo sapiens, UniProt P20813); assay: Reversible inhibition of CYP2B6 in human liver microsomes using bupropion as substrate incubated for 5 mins in presence of NADPH-generating system by LC-MS/MS analysis; type: ADME, Microsome
T2 sequence (P20813 whole entry): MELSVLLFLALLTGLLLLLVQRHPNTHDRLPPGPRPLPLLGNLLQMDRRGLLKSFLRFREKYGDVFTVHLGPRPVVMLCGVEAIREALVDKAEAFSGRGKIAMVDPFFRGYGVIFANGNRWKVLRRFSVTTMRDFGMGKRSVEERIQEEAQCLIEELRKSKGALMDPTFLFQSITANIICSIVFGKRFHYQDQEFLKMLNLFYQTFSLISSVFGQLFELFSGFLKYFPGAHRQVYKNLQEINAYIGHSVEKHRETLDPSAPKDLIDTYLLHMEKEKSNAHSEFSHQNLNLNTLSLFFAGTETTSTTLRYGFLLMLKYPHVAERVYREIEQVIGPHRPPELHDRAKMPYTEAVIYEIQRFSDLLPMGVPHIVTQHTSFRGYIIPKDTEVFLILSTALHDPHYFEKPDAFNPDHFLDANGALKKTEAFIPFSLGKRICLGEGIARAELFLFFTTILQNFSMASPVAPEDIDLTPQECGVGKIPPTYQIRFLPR

Cytochrome P450 3A4 = Cytochrome P450 3A4 (Homo sapiens, UniProt P08684); assay: Induction of CYP3A4 in human hepatocytes assessed as increase in CYP3A4 mRNA level at 20 uM measured after 48 hrs by PCR analysis relative to control; type: ADME, cell-based, Hepatocyte
Cytochrome P450 3A4, sequence (P08684 whole entry): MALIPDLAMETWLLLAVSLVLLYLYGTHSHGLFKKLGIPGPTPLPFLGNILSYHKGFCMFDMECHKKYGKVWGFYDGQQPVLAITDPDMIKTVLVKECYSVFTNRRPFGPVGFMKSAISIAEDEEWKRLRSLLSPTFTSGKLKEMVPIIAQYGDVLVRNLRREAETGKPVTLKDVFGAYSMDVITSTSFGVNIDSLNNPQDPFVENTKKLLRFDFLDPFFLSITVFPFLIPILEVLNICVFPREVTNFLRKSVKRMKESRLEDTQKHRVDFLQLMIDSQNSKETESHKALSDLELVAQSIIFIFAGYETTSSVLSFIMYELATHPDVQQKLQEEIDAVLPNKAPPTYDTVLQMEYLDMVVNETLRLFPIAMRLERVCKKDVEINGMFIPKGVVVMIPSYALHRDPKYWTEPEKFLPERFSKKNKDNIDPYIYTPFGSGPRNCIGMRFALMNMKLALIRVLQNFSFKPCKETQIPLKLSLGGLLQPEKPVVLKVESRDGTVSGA

[8] = MRT in dog at 3 mg/kg, po or 1 mg/kg, iv measured upto 24 hrs by LC-MS analysis; type: ADME, organism-based, Canis lupus familiaris; conditions: in vivo
SARS-CoV-2 [9] = assay: Antiviral activity against SARS CoV-2 USA-WA1/2020 infected in po dosed B6.Cg-Tg(K18-ACE2)2Prlmn/J mouse assessed as reduction in viral load in lung administered orally twice daily and measured on day 4 post inoculation; type: functional, organism-based; conditions: Severe acute respiratory syndrome coronavirus 2, dose 100-500 mg/kg, time 4.0 day
SARS-CoV-2 [10] = assay: Antiviral activity against SARS-CoV-2 Delta B.1.617 AY-2 infected in human A549-hACE2-TMPRSS2 cells assessed as inhibition of virus induced cytopathic effect incubated for 72 hrs by celltiter glo assay; type: functional, organism-based; conditions: Severe acute respiratory syndrome coronavirus 2, Delta B.1.617 AY-2, A549-hACE2-TMPRSS2, 72 h
SARS-CoV-2 [11] = assay: Antiviral activity against SARS CoV-2 USA-WA1/2020 infected in B6.Cg-Tg(K18-ACE2)2Prlmn/J mouse assessed as log reduction in plaque-forming units in lung at […], po bid measured on day 4 post inoculation; type: functional, Severe acute respiratory syndrome coronavirus 2; conditions: time 4 day
CYP3A [12] = molecular target: T3, CYP3A (Homo sapiens, UniProt P08684+P20815+P24462+Q9HB55); assay: Reversible inhibition of CYP3A in human liver microsomes incubated for 5 mins in presence of NADPH-generating system by LC-MS/MS analysis; type: ADME, Microsome
CYP3A [13] = molecular target: T3, CYP3A; assay: Time dependent inhibition of CYP3A in human liver microsomes assessed as inhibition constant; type: ADME, Microsome
SARS-CoV-2 [14] = assay: Antiviral activity against SARS CoV-2 USA-WA1/2020 infected in B6.Cg-Tg(K18-ACE2)2Prlmn/J mouse assessed as protection against body weight loss at 100 to 500 mg/kg, po bid measured daily for 4 days post inoculation; type: functional, organism-based; conditions: Severe acute respiratory syndrome coronavirus 2, dose 100-500 mg/kg, time 4.0 day
[15] = Plasma stability in dog assessed as epimerization at 1 uM measured upto 3 hrs by LC-MS/MS analysis; type: ADME, cell-free, Canis lupus familiaris
Cytochrome P450 2C9 = Cytochrome P450 2C9 (Homo sapiens, UniProt P11712); assay: Reversible inhibition of CYP2C9 in human liver microsomes using diclofenac as substrate incubated for 5 mins in presence of NADPH-generating system by LC-MS/MS analysis; type: ADME, Microsome
Cytochrome P450 2C9, sequence (P11712 whole entry): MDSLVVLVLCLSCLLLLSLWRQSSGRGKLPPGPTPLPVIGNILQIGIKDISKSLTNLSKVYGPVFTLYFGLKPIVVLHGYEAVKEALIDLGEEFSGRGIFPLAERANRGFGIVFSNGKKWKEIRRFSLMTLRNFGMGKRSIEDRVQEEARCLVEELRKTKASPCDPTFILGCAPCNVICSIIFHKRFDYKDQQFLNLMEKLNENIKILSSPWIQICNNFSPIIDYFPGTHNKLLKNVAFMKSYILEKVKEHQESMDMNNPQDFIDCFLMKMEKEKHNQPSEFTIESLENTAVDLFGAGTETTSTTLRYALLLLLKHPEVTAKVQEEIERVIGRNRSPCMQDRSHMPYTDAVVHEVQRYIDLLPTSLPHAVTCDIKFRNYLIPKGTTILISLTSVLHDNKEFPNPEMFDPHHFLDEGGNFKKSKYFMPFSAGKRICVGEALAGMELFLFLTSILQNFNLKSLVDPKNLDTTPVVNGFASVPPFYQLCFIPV

[16] = Oral bioavailability in rat at 3 mg/kg measured upto 24 hrs by LC-MS analysis; type: ADME, organism-based; conditions: in vivo
Cytochrome P450 1A2 [17] = molecular target: T1, Cytochrome P450 1A2; assay: Induction of CYP1A2 in human hepatocytes assessed as increase in CYP1A2 mRNA level at 20 uM measured after 48 hrs by PCR analysis relative to control; type: ADME, cell-based, Hepatocyte
[18] = Plasma stability in human assessed as epimerization at 1 uM measured upto 3 hrs by LC-MS/MS analysis; type: ADME, cell-free
[19] = Lipophilicity, logD of compound at pH 8 by HPLC analysis; type: physicochemical; conditions: buffer
Cytochrome P450 2B6 [20] = molecular target: T2, Cytochrome P450 2B6; assay: Induction of CYP2B6 in human hepatocytes assessed as increase in CYP2B6 mRNA level at 20 uM measured after 48 hrs by PCR analysis relative to control; type: ADME, cell-based, Hepatocyte
Cytochrome P450 2C19 = Cytochrome P450 2C19 (Homo sapiens, UniProt P33261); assay: Reversible inhibition of CYP2C19 in human liver microsomes using S-mephenytoin as substrate incubated for 5 mins in presence of NADPH-generating system by LC-MS/MS analysis; type: ADME, Microsome
Cytochrome P450 2C19, sequence (P33261 whole entry): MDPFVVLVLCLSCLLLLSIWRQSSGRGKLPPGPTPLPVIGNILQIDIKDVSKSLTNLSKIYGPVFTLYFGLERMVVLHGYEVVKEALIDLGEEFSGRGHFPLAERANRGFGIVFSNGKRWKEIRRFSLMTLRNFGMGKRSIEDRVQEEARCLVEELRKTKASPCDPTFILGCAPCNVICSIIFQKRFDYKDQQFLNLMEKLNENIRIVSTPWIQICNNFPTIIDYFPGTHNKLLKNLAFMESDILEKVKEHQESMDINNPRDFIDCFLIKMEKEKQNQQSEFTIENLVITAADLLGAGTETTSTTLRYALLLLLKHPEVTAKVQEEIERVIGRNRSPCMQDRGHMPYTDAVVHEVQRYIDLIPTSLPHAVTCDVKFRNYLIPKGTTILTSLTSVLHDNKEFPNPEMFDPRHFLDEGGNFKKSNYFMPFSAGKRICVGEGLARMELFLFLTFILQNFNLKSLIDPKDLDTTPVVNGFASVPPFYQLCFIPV

Question: For CNC(=O)C(=O)[C@H](CCC(C)(F)F)NC(=O)[C@@H]1[C@H]2CCC[C@H]2CN1C(=O)[C@@H](NC(=O)OC)C(C)(C)C, which bioavailability [1] is on record?
Answer: 67%

Question: And the Papp [2]?
Answer: 5.7 ×10⁻⁶ cm/s

Question: And the IC50 (Cytochrome P450 2D6)?
Answer: > 200 µM

Question: What about the IC50 (Cytochrome P450 1A2 [3]) of the same compound?
Answer: > 200 µM

Question: And the Activity (SARS-CoV-2 [4])?
Answer: Dose-Dependent Effect

Question: And the fraction unbound at 1 µM [5]?
Answer: 0.5

Question: What about the Stability [6] of the same compound?
Answer: Unstable

Question: And the IC50 (Cytochrome P450 2B6 [7])?
Answer: 159 µM

Question: What about the Activity (Cytochrome P450 3A4) of the same compound?
Answer: 22%

Question: What about the MRT [8] of the same compound?
Answer: 2.5 h

Question: And the Activity (SARS-CoV-2 [9])?
Answer: Dose-Dependent Effect

Question: And the IC50 (SARS-CoV-2 [10])?
Answer: 0.351 µM

Question: And the “log(activity)” value (SARS-CoV-2 [11])?
Answer: 1.7

Question: And the IC50 at 5 min (CYP3A [12])?
Answer: 118 µM

Question: And the Ki (CYP3A [13])?
Answer: 110 µM

Question: And the Activity (SARS-CoV-2 [14])?
Answer: Active

Question: What about the Stability [15] of the same compound?
Answer: Unstable

Question: And the IC50 (Cytochrome P450 2C9)?
Answer: > 200 µM

Question: What about the bioavailability [16] of the same compound?
Answer: 65%

Question: And the Activity (Cytochrome P450 1A2 [17])?
Answer: < 1%

Question: What about the Stability [18] of the same compound?
Answer: Unstable

Question: And the logD [19]?
Answer: 2.49

Question: What about the Activity (Cytochrome P450 2B6 [20]) of the same compound?
Answer: 7%

Question: And the IC50 (Cytochrome P450 2C19)?
Answer: > 200 µM
